System: tail tip fibroblasts (TTFs), MRTF-A KO and WT
Test: SMA expression in tail tip fibroblasts from MRTF-A KO and WT mice
Assay type: cell-based, mouse
Conditions: TGF-β1 48 hrs
Protocol: Mouse NIH/3T3 and human BR5 fibroblasts were grown as in DMEM supplemented with 10% BCS or FBS at 37° C. in a 5% CO2 incubator as previously described (Rhee et al., 2007). Primary mouse tail tip fibroblasts (TTFs) were isolated from 6- to 8-wk-old myocardin-related transcription factor (MRTF)-A−/− or wild-type littermates and cultured in DMEM supplemented with 10% FBS, nonessential amino acids, L-glutamine, and sodium pyruvate as described previously (Song et al., 2012). Once TTFs became confluent, cells were frozen in 10% DMSO containing growth media for future use before passage 3.
NIH/3T3 cells were transfected with 10 ng empty flag or flag epitope-tagged MRTF-A vector along with 100 ng smooth muscle a-actin (SMA), atrial natriuretic factor (ANF), SM22, or skeletal actin (SKA) luciferase reporter and 20 ng of β-galactosidase (β-gal) expression construct using Fugene6 (Roche). Plasmid DNA content was kept constant using empty pcDNA3.1-flag. BR5, NIH/3T3, or TTF cells were infected with adenovirus directing the expression of flag-MRTF-A, HA-MRTF-A, or β-gal as control at the multiplicity of infection (MOI) noted in the text. For experiments using chemical compounds or growth factors, cells were cultured in serum-free media (SF) for 24 h before treatment, followed by an additional 24- to 48-hr incubation in SF media treated with TGF-β1 (10 ng/mL, R&D Systems) solubilized in 4 mM HCl/1% BSA/PBS or isoxazole (20 μM) solubilized inDMSO.
Cells were treated with the indicated factor for 24 h before fixation with methanol at −20° C. for 10 min. Indirect immunofluorescence was performed by incubating with the following primary antibodies at 4° C. overnight: mouse monoclonal Cy3-conjugated anti-SMA antibody (Sigma, clone 1A4, 1:200) and rabbit monoclonal anti-HA antibody (Cell Signaling, 1:300). A secondary goat Alexa Fluor 488-conjugated anti-rabbit IgG antibody (Invitrogen, 1:200) was used to visualize HA by incubation at RT for 1 hr. All images were captured using an Olympus IX81 confocal microscope. […]

## TGF-β1: growth factor (R&D Systems) used at 10 ng/mL to stimulate fibroblast differentiation
MRTF-A-deficient TTFs
  expression of genes encoding SMC contractile proteins (SMA and SM22), qPCR and Western blot: blunted
MRTF-A-deficient fibroblasts
  SMA-positive stress fibers: did not display an enrichment
WT fibroblasts
  morphology and SMA-positive stress fibers: adopting an elongated morphology and producing SMA-positive stress fibers

Reference: patent US9937156B2, “Modulation of MRTF-A activity in pathologic fibrosis and wound healing” (The Board of Regents of the University of Texas System, priority 2013, dated 2018)
